By Ki is commonly meant the equilibrium dissociation constant of an inhibitor or competing ligand from its target.

From patent US9815796B2 (Merck Sharp & Dohme Corp., priority 2013, dated 2017) come the findings set out here.

In the assay the target is Rhesus PDE2A3 (Macaca mulatta, UniProt B3VTJ2). As to the kind of experiment: PDE2 fluorescence polarization (IMAP FP) inhibition assay, rhesus enzyme. The format is biochemical, rhesus macaque. The method, then:
The activity of the compounds in accordance with the present invention as PDE2 inhibitors may be readily determined using a fluorescence polarization (FP) methodology (Huang, W., et al., J. Biomol Screen, 2002, 7: 215).
In a typical experiment the PDE2 inhibitory activity of the compounds of the present invention was determined in accordance with the following experimental method. Rhesus PDE2A3 was amplified from rhesus macaque brain cDNA (Biochain Institute, Hayward, Calif.) using primers based on human PDE2A sequence (accession NM_002599.3) where the forward primer containing a Kozak consensus was 5′-[…]-3′ and the reverse primer was 5′-[…]-3′. Amplification with Easy-A High-Fidelity PCR cloning enzyme (Stratagene, La Jolla, Calif.) was 95° C. for 2 minutes followed by thirty three cycles of 95° C. for 40 seconds, 52° C. for 30 seconds, and 72° C. for 2 minutes 48 seconds. Final extension was 72° C. for 7 minutes. The PCR product was TA cloned into pcDNA3.3-TOPO (Invitrogen, Carlsbad, Calif.) according to standard protocol. A consensus sequence was developed from multiple clones and then deposited into GenBank (EU812167). AD293 cells (Stratagene, La Jolla, Calif.) with 70-80% confluency were transiently transfected with rhesus PDE2A3/pcDNA3.3-TOPO using Lipofectamine 2000 according to manufacturer specifications (Invitrogen, Carlsbad, Calif.). Cells were harvested 48 hours post-transfection and lysed by sonication (setting 3, 10×5 sec pulses) in a buffer containing 20 mM HEPES pH 7.4, 1 mM EDTA and Complete Protease Inhibitor Cocktail Tablets (Roche, Indianapolis, Ind.). Lysate was collected by centrifugation at 75,000×g for 20 minutes at 4° C. and supernatant utilized for evaluation of PDE2 activity. The fluorescence polarization assay for cyclic nucleotide phosphodiesterases was performed using an IMAP® FP kit supplied by Molecular Devices, Sunnyvale, Calif. (product # R8139). […] Assays were performed at room temperature in 384-well microtiter plates with an incubation volume of 20.2 μL. Solutions of test compounds were prepared in DMSO and serially diluted with DMSO to yield 8 μL of each of 10 solutions differing by 3-fold in concentration, at 32 serial dilutions per plate. […] 0% of inhibition is determined by using DMSO (1% final concentrations).
A Labcyte Echo 555 (Labcyte, Sunnyvale, Calif.) is used to dispense 200 nL from each well of the titration plate to the 384 well assay plate. Ten microliters of a solution of enzyme (1/2000 final dilution from aliquots; sufficient to produce 20% substrate conversion) was added to the assay plate. Next 10 uL of a separate solution of the substrate FAM-labeled cAMP (50 nM final concentration product # R7506 from Molecular Devices) and the activator cGMP (1 uM final concentration), prepared in the assay buffer (10 mM Tris HCl, pH 7.2, 10 mM MgCl2, 0.05% NaN3 0.01% Tween-20, and 1 mM DTT) was added to the assay plate and shaken to mix. The reaction is allowed to proceed at room temperature for 60 minutes. A binding solution is then made from the kit components, comprised of 80% Solution A, 20% Solution B and binding reagent at a volume of 1/600 the total binding solution. The enzymatic reaction is stopped by addition of 60 μL of the binding solution to each well of the assay plates and the plates are sealed and shaken for 30 seconds. The plate was incubated at room temperature for at least one hour prior to determining the fluorescence polarization (FP). The parallel and perpendicular fluorescence of each well of the plate was measured using a Tecan Genios Pro plate reader (Tecan, Switzerland) or Perkin Elmer EnVision™ plate reader (Waltham, Mass.). Fluorescence polarization (mP) was calculated from the parallel (S) and perpendicular (P) fluorescence of each sample well and the analogous values for the median control well, containing only substrate (So and Po), using the following equation: Polarization (mP)=1000*(S/So−P/Po)/(S/So+P/Po).
Background: Fluorescence polarisation rises when a labelled molecule tumbles more slowly, as on binding a larger partner.

[1] abbreviates: Rhesus PDE2, Lab B, read-out: Rhesus PDE2 Ki (nM) - Lab B.
Where [2] appears, read: Rhesus PDE2, Lab A, read-out: Rhesus PDE2 Ki (nM) - Lab A.

Where two headings read alike, the source gives them in different places.

Sequence of Rhesus PDE2A3 (B3VTJ2 1-941): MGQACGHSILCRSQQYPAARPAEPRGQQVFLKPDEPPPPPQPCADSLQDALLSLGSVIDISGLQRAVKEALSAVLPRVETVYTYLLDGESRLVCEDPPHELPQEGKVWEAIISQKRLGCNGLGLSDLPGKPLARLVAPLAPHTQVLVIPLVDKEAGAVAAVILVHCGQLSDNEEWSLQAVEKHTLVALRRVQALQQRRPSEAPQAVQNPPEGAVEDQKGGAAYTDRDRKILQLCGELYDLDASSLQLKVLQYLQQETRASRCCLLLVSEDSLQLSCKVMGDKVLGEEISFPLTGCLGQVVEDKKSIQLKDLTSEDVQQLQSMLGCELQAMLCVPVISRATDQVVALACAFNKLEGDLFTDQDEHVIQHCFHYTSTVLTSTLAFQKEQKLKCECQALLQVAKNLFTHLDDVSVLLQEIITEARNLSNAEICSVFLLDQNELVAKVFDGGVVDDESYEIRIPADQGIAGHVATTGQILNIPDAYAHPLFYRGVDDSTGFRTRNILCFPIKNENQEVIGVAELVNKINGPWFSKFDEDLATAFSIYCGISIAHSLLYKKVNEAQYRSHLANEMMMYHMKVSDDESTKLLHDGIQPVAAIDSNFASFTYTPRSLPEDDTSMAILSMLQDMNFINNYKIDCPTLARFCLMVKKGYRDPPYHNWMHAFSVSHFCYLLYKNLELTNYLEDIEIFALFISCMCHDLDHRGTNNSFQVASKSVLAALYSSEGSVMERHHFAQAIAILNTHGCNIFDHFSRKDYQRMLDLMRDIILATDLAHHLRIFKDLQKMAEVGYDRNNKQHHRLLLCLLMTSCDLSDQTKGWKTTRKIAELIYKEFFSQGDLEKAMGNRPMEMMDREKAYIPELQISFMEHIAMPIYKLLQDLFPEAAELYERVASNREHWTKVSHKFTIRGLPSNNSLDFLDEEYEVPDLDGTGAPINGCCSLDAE

For `CCOC(=O)c1ccc([C@H](C)NC(=O)c2cc(=O)[nH]c(-c3ncccn3)n2)cc1` [Example 431, ethyl 4-[(1S)-1-{[(6-oxo-1,6-dihydro-2,2′-bipyrimidin-4-yl)carbonyl]amino}ethyl]benzoate], under setting [1], the Ki was about 2890 nM.
The same measure, in the same setting: with `C[C@H](c1ccc(C(F)(F)F)cc1)N(C)C(=O)c1cc(=O)[nH]c(-c2ccccc2)n1` [Example 389, N-methyl-6-oxo-2-phenyl-N-{(1R)-1-[4-(trifluoromethyl)phenyl]ethyl}-1,6-dihydropyrimidine-4-carboxamide] the figure was 8980 nM.
Consider `CCOC(=O)c1ccc([C@@H](C)NC(=O)c2cc(=O)[nH]c(-c3ccccc3)n2)cc1` [Example 355, ethyl 4-[(1R)-1-{[(6-oxo-2-phenyl-1,6-dihydropyrimidin-4-yl)carbonyl]amino}ethyl]benzoate], for which, under setting [1], the inhibitory constant (Ki) is about 29200 nM.
As for `Cc1nc(C(=O)NC(C)c2ccc(C(C)(C)C(F)(F)F)cc2)cc(=O)[nH]1` (single isomer, unassigned) [Example 695, (R)- or (S)-2-methyl-6-oxo-N-(1-(4-(1,1,1-trifluoro-2-methylpropan-2-yl)phenyl)ethyl)-1,6-dihydropyrimidine-4-carboxamide], the Ki under setting [1] turned out to be 473 nM.
With `Cc1nc(C(=O)NC(CO)c2ccc(C(F)(F)F)cc2)cc(=O)[nH]1` (single isomer, unassigned) [Example 311, (S)- or (R)-N-{2-hydroxy-1-[4-(trifluoromethyl)phenyl]ethyl}-2-methyl-6-oxo-1,6-dihydropyrimidine-4-carboxamide], the Ki under setting [2] came out at 9120 nM.
Same read-out and setting: the value for `COc1ccc(C(NC(=O)c2cc(=O)[nH]c(C3CC3)n2)c2ccc(C(F)(F)F)cc2)cc1` (stereo not drawn) [Example 205, 2-cyclopropyl-N-{(4-methoxyphenyl)[4-(trifluoromethyl)phenyl]methyl}-6-oxo-1,6-dihydropyrimidine-4-carboxamide] was 694 nM.
In the case of `Cc1nc(C(=O)NC(c2ccc(SC(F)(F)F)cc2)C(C)C)cc(=O)[nH]1` (stereo in doubt) [Example 615, 2-methyl-N-[(1S)-2-methyl-1-{4-[(trifluoromethyl)sulfanyl]phenyl}propyl]-6-oxo-1,6-dihydropyrimidine-4-carboxamide], the Ki under setting [1] came out at 441 nM.
As to `Cc1nc(C(=O)N[C@H](c2ccc(C(F)(F)F)cc2)C(C)C)cc(=O)[nH]1` [Example 315, 2-methyl-N-{(1S)-2-methyl-1-[4-(trifluoromethyl)phenyl]propyl}-6-oxo-1,6-dihydropyrimidine-4-carboxamide], the Ki under setting [2] was 698 nM.
As to `CC(C)(NC(=O)c1cc(=O)[nH]c(-c2ccccc2)n1)c1ccc(S(F)(F)(F)(F)F)cc1` [Example 679, N-{1-methyl-1-[4-(pentafluoro-λ^6-sulfanyl)phenyl]ethyl}-6-oxo-2-phenyl-1,6-dihydropyrimidine-4-carboxamide], the Ki under setting [1] amounted to 90 nM.
With `COc1cc(C(F)(F)F)ccc1[C@H](C)NC(=O)c1cc(=O)[nH]c(-c2ccccc2)n1` [Example 403, N-{(1S)-1-[2-methoxy-4-(trifluoromethyl)phenyl]ethyl}-6-oxo-2-phenyl-1,6-dihydropyrimidine-4-carboxamide], under setting [1], the Ki stood at 1910 nM.
On to `C[C@@H](NC(=O)c1cc(=O)[nH]c(-c2ncccn2)n1)c1ccc(CC(F)(F)F)cc1` [Example 107, 6-oxo-N-{(1R)-1-[4-(2,2,2-trifluoroethyl)phenyl]ethyl}-1,6-dihydro-2,2′-bipyrimidine-4-carboxamide], for which the Ki under setting [2] was found to be 21 nM.
On to `CC(NC(=O)c1cc(=O)[nH]c(-c2ccccc2)n1)c1ccc(C#N)cc1` (stereo not drawn) [Example 370, N-[1-(4-cyanophenyl)ethyl]-6-oxo-2-phenyl-1,6-dihydropyrimidine-4-carboxamide], for which the Ki by setting is: under setting [2], 334 nM; under setting [1], 533 nM.
With `Cc1nc(C(=O)N[C@@H](c2ccc(C(F)(F)F)c([N+](=O)[O-])c2)C(C)(C)C)cc(=O)[nH]1` [Example 531, N-{(1R)-2,2-dimethyl-1-[3-nitro-4-(trifluoromethyl)phenyl]propyl}-2-methyl-6-oxo-1,6-dihydropyrimidine-4-carboxamide], the Ki under setting [1] came to 32 nM.
In the case of `COc1ccc(C(NC(=O)c2cc(=O)[nH]c(-c3ccccc3)n2)c2ccc(C(F)(F)F)cc2)cc1` (stereo not drawn) [Example 381, N-{(4-methoxyphenyl)[4-(trifluoromethyl)phenyl]methyl}-6-oxo-2-phenyl-1,6-dihydropyrimidine-4-carboxamide], under setting [1], the Ki is about 20400 nM.
As for `O=C(c1cc(=O)[nH]c(-c2ccccc2)n1)N1CCCCC1c1ccc(C(F)(F)F)cc1` (stereo not drawn) [Example 346, 2-phenyl-6-({2-[4-(trifluoromethyl)phenyl]piperidin-1-yl}carbonyl)pyrimidin-4(3H)-one], the Ki under setting [2] stood at 2350 nM.
With `COc1ccc(C(C)(C)NC(=O)c2cc(=O)[nH]c(-c3ccccc3)n2)cc1` [Example 460, N-[1-(4-methoxyphenyl)-1-methylethyl]-6-oxo-2-phenyl-1,6-dihydropyrimidine-4-carboxamide], the Ki under setting [1] amounted to 371 nM.
On to `O=C(NC(c1ccccc1)c1ccc(C(F)(F)F)cc1)c1cc(=O)[nH]c(-c2ccccc2)n1` (stereo not drawn) [Example 162, 6-oxo-2-phenyl-N-{phenyl[4-(trifluoromethyl)phenyl]methyl}-1,6-dihydropyrimidine-4-carboxamide], for which, for the setting “Rhesus PDE2, Lab A, at 1 uM”, the “Rhesus PDE2 % inh. at 1 uM - Lab A” value is 45 % inh. Besides, the Ki under setting [2] is over 1000 nM and the Ki under setting [1] was determined as 1000 nM.
Take `O=C(NCc1ccc(C(F)(F)F)cc1Cl)c1cc(=O)[nH]c(-c2ccccc2)n1` [Example 181, N-[2-chloro-4-(trifluoromethyl)benzyl]-6-oxo-2-phenyl-1,6-dihydropyrimidine-4-carboxamide]: under setting [2], the Ki is 485 nM.
In the case of `COc1ccc([C@@H](C)NC(=O)c2cc(=O)[nH]c(-c3ncccn3)n2)c(OC)c1` [Example 88, N-[(1R)-1-(2,4-dimethoxyphenyl)ethyl]-6-oxo-1,6-dihydro-2,2′-bipyrimidine-4-carboxamide], the Ki under setting [2] was 2360 nM.
`CC1(C(NC(=O)c2cc(=O)[nH]c(-c3ncccn3)n2)c2ccc(SC(F)(F)F)c(F)c2)CC1` (single isomer, unassigned) [Example 708, (S)- or (R)-N-((3-fluoro-4-((trifluoromethyl)thio)phenyl)(1-methylcyclopropyl)methyl)-6-oxo-1,6-dihydro-[2,2′-bipyrimidine-4-carboxamide]: the inhibition constant Ki under setting [1] was about 2120 nM.
On to `CC[C@@H](NC(=O)c1cc(=O)[nH]c(-c2ncccn2)n1)c1ccc(SC(F)(F)F)cc1` [Example 100, 6-oxo-N-[(1R)-1-{4-[(trifluoromethyl)sulfanyl]phenyl]propyl]-1,6-dihydro-2,2′-bipyrimidine-4-carboxamide], for which, under setting [2], the Ki came to 2.6 nM.
Still for that read-out and setting: with `COc1ccc(Cc2nc(C(=O)NC3(C)CC3)cc(=O)[nH]2)cc1OC` [Example 5, 2-(3,4-dimethoxybenzyl)-N-(1-methylcyclopropyl)-6-oxo-1,6-dihydropyrimidine-4-carboxamide] the figure was 1150 nM; with `Cc1nc(C(=O)N[C@H](C)c2ccc(-c3cccnc3)cc2)cc(=O)[nH]1` [Example 320, 2-methyl-6-oxo-N-[(1R)-1-(4-pyridin-3-ylphenyl)ethyl]-1,6-dihydropyrimidine-4-carboxamide], 1700 nM.
For the compound `Cc1nc(C(=O)N[C@H](C)c2cc(F)c(C(F)(F)F)cc2F)cc(=O)[nH]1` [Example 616], the Ki under setting [1] came to 112 nM.
